This passage reports IC50 and Activity results from ChEMBL document CHEMBL5584217, “Synthesis, biological activity evaluation and mechanism of action of novel bis-isatin derivatives as potential anti-liver cancer agents” (Bioorg Med Chem Lett, 2024).

One series relates to MHCC97H. The experiment in a line: Antiproliferative activity against human MHCC97H cells assessed as inhibition of cell growth incubated for 48 hrs by CCK-8 method. In kind it is functional, cell-based. In general terms: Tetrazolium dyes change colour on reduction, which living cells bring about.
The test system of a further series is HuH-6. The experiment in a line: Antiproliferative activity against human HuH-6 cells assessed as inhibition of cell growth incubated for 48 hrs by CCK-8 method. The series is classed as functional, cell-based. To be noted: HuH-6, 48 h.
Another series relates to H22. The experiment in a line: Antiproliferative activity against mouse H22 cells assessed as inhibition of cell growth incubated for 48 hrs by CCK-8 method. The series is classed as functional, cell-based. To be noted: H22, 48 h.
For the next series, the system named is Huh-7. The experiment in a line: Antiproliferative activity against human Huh-7 cells assessed as inhibition of cell growth incubated for 48 hrs by CCK-8 method. To be noted: Huh-7, 48 h. The series is classed as functional, cell-based.
Series [1] in a line: Antiproliferative activity against mouse AML12 cells assessed as inhibition of cell growth incubated for 48 hrs by CCK-8 method. In kind it is toxicity, cell-based.
Another series relates to Hepa 1-6. Kind of series: Antiproliferative activity against mouse Hepa1-6 cells assessed as inhibition of cell growth incubated for 48 hrs by CCK-8 method. The series is classed as functional, cell-based. To be noted: Hepa1-6, 48 h.
The next series deals with HepG2. Kind of series: Antiproliferative activity against human HepG2 cells assessed as inhibition of cell growth incubated for 48 hrs by CCK-8 method. To be noted: HepG2, 48 h. The series is classed as functional, cell-based.
The subject of series [2] is HuH-1. Kind of series: Antiproliferative activity against human HuH-1 cells assessed as inhibition of cell growth incubated for 48 hrs by CCK-8 method. In kind it is functional, cell-based. To be noted: HuH-1, 48 h.
The subject of series [3] is HuH-1. The experiment in a line: Antitumor activity against human HuH-1 cells xenografted in NCG mouse model assessed as increase in tumor cell death at 20 mg/kg, ip administered every other day for 14 days. The series is classed as functional, organism-based. To be noted: time 14.0 day.
Series [4] relates to HuH-1. Kind of series: Antitumor activity against human HuH-1 cells xenografted in NCG mouse model assessed as reduction in tumor cell density at 20 mg/kg, ip administered every other day for 14 days. The series is classed as functional, organism-based. To be noted: time 14.0 day. (In general: In xenograft studies the graft and the host belong to different species.)
Series [5] deals with HuH-1. Kind of series: Induction of autophagy in human HuH-1 cells assessed as increase in LC3BII expression by […] based analysis. The series is classed as functional, cell-based.
The subject of series [6] is HuH-1. The experiment in a line: Induction of autophagy in human HuH-1 cells assessed as increase in ATG5 expression by […] based analysis. The series is classed as functional, cell-based.
The subject of series [7] is HuH-1. The experiment in a line: Induction of autophagy in human HuH-1 cells assessed as increase in LC3BI expression by […] based analysis. In kind it is functional, cell-based.
For series [8], the system named is HuH-1. The experiment in a line: Induction of autophagy in human HuH-1 cells assessed as downregulation of P62 expression by […] based analysis. In kind it is functional, cell-based.
For series [9], the system named is HuH-1. The experiment in a line: Antitumor activity against human HuH-1 cells xenografted in NCG mouse model assessed as increase in tumor cell death at 15 mg/kg, ip administered every other day for 14 days. In kind it is functional, organism-based. To be noted: time 14.0 day.
For series [10], the system named is HuH-1. The experiment in a line: Antitumor activity against human HuH-1 cells xenografted in NCG mouse model assessed as reduction in tumor cell density at 15 mg/kg, ip administered every other day for 14 days. To be noted: time 14.0 day. The series is classed as functional, organism-based.
The test system of series [11] is HuH-1. Kind of series: Antitumor activity against human HuH-1 cells xenografted in NCG mouse model assessed as reduction in tumor size at 15 mg/kg, ip administered every other day for 14 days. To be noted: time 14.0 day. The series is classed as functional, organism-based.
Series [12] can be described thus: Toxicity in NCG mouse assessed as pathological change in tumor at 15 mg/kg, ip measured after 14 days by H and E staining based analysis. To be noted: in vivo, 336 h, time 14 day. The series is classed as organism-based.
Series [13] is described as follows: Toxicity in NCG mouse assessed as effect on HCT level at 15 mg/kg, ip measured after 14 days. The series is classed as organism-based. To be noted: in vivo, 336 h, time 14 day.
Series [14] in a line: Toxicity in NCG mouse assessed as effect on MCV level at 15 mg/kg, ip measured after 14 days. To be noted: in vivo, 336 h, time 14 day. The series is classed as organism-based.
Series [15] is described as follows: Toxicity in NCG mouse assessed as effect on LDH level at 15 mg/kg, ip measured after 14 days. To be noted: in vivo, 336 h, time 14 day. In kind it is organism-based.
Series [16] is described as follows: Toxicity in NCG mouse assessed as effect on AST level at 15 mg/kg, ip measured after 14 days. In kind it is organism-based. To be noted: in vivo, 336 h, time 14 day.
A short description of series [17]: Toxicity in NCG mouse assessed as effect on MCH level at 15 mg/kg, ip measured after 14 days. The series is classed as organism-based. To be noted: in vivo, 336 h, time 14 day.
The nature of series [18]: Toxicity in NCG mouse assessed as pathological change in spleen at 15 mg/kg, ip measured after 14 days by H and E staining based analysis. The series is classed as organism-based. To be noted: in vivo, 336 h, time 14 day.
Series [19] in a line: Toxicity in NCG mouse assessed as effect on ALB level at 15 mg/kg, ip measured after 14 days. The series is classed as organism-based. To be noted: in vivo, 336 h, time 14 day.
Series [20] can be described thus: Toxicity in NCG mouse assessed as pathological change in liver at 15 mg/kg, ip measured after 14 days by H and E staining based analysis. In kind it is organism-based. To be noted: in vivo, 336 h, time 14 day.
Series [21] in a line: Toxicity in NCG mouse assessed as effect on ALT level at 15 mg/kg, ip measured after 14 days. To be noted: in vivo, 336 h, time 14 day. In kind it is organism-based.
Series [22] is described as follows: Toxicity in NCG mouse assessed as effect on RBC level at 15 mg/kg, ip measured after 14 days. In kind it is organism-based, Erythrocyte. To be noted: in vivo, 336 h, time 14 day.
Series [23] in a line: Toxicity in NCG mouse assessed as pathological change in kidney at 15 mg/kg, ip measured after 14 days by H and E staining based analysis. The series is classed as organism-based. To be noted: in vivo, 336 h, time 14 day.
Series [24] relates to HuH-1. The experiment in a line: Antitumor activity against human HuH-1 cells xenografted in NCG mouse model assessed as reduction in tumor weight at 15 mg/kg, ip administered every other day for 14 days. In kind it is functional, organism-based. To be noted: time 14.0 day.
Series [25] can be described thus: Toxicity in NCG mouse assessed as effect on UREA level at 15 mg/kg, ip measured after 14 days. In kind it is organism-based. To be noted: in vivo, 336 h, time 14 day.
Series [26] is described as follows: Toxicity in NCG mouse assessed as effect on HGB level at 15 mg/kg, ip measured after 14 days. In kind it is organism-based. To be noted: in vivo, 336 h, time 14 day.
A short description of series [27]: Toxicity in NCG mouse assessed as pathological change in lung at 15 mg/kg, ip measured after 14 days by H and E staining based analysis. In kind it is organism-based. To be noted: in vivo, 336 h, time 14 day.
Series [28] can be described thus: Toxicity in NCG mouse assessed as pathological change in heart at 15 mg/kg, ip measured after 14 days by H and E staining based analysis. To be noted: in vivo, 336 h, time 14 day. The series is classed as organism-based.

The structures appear in SMILES notation. Calls of active or inactive are those of the source. No cut-off for these calls is given here. Where only a bound is given, the exact number is not on record here.

For `COC(=O)[C@H](CCCCNC(=O)CN1C(=O)C(=O)c2cc(C)ccc21)NC(=O)CN1C(=O)C(=O)c2cc(C)ccc21`, the IC50 is > 100 µM in the series on MHCC97H; > 100 µM in the series with HuH-6; > 100 µM in the series on H22; 32.9 µM in the series on Huh-7; > 100 µM in the series with Hepa 1-6; > 100 µM with HepG2. Moreover, in the series on HuH-1 [2], the concentration for half-maximal inhibition (IC50) was 35.1 µM. In addition, the IC50 at 48 h in [1] was > 100 µM.
`CNC(=O)c1cc(Oc2ccc(NC(=O)Nc3ccc(Cl)c(C(F)(F)F)c3)cc2)ccn1` [SORAFENIB]: the outcome in the series with HuH-1 [3] and in the series on HuH-1 [4] was Active. In addition, the concentration for half-maximal inhibition (IC50) in the series with H22 was 10.7 µM; in the series with Huh-7 it was 14.7 µM; in the series on HuH-1 [2], 9.63 µM.
Regarding `COC(=O)[C@H](CCCCNC(=O)CN1C(=O)C(=O)c2ccccc21)NC(=O)CN1C(=O)C(=O)c2ccccc21`, the half-maximal inhibitory concentration (IC50) in the series with MHCC97H, in the series on HuH-6, in the series with H22, with Huh-7, with Hepa 1-6 and in the series on HepG2 was > 100 µM each time. Also, in the series on HuH-1 [2], the IC50 was > 100 µM. Further, the IC50 at 48 h in series [1] was > 100 µM.
With `COC(=O)[C@H](CCCCNC(=O)CN1C(=O)C(=O)c2cc(F)ccc21)NC(=O)CN1C(=O)C(=O)c2cc(F)ccc21`, the outcome with HuH-1 [5], in the series on HuH-1 [6], in the series on HuH-1 [7] and with HuH-1 [8] was Active. Also, the IC50 in the series on MHCC97H, with HuH-6, in the series on H22, in the series on Huh-7, in the series on Hepa 1-6 and in the series with HepG2 was > 100 µM in each case. The 50% inhibitory concentration (IC50) with HuH-1 [2] is > 100 µM. Moreover, the half-maximal inhibitory concentration (IC50) at 48 h in series [1] was > 100 µM.
For `COC(=O)[C@H](CCCCNC(=O)CN1C(=O)C(=O)c2cc(OC)ccc21)NC(=O)CN1C(=O)C(=O)c2cc(OC)ccc21`, the half-maximal inhibitory concentration (IC50) in the series on MHCC97H, with HuH-6, with H22, in the series with Huh-7, with Hepa 1-6 and in the series on HepG2 was > 100 µM each time. In the series on HuH-1 [2], the IC50 is > 100 µM. The IC50 at 48 h in series [1] is > 100 µM.
In the case of `COC(=O)[C@H](CCCCNC(=O)CN1C(=O)C(=O)c2cc(Br)ccc21)NC(=O)CN1C(=O)C(=O)c2cc(Br)ccc21`, the result with HuH-1 [9], with HuH-1 [10], in the series with HuH-1 [11] and with HuH-1 [24] was Active. Further, the Activity entry in series [12], in [13], in series [14], in series [15], in [16] and in series [17] was “Non-Toxic” each time. In addition, the Activity result in series [18], in series [19], in series [20], in [21], in series [22] and in series [23] was “Non-Toxic” each time. Further, the Activity entry in series [25], in series [26], in series [27] and in [28] was “Non-Toxic” in each case. Also, the IC50 was > 100 µM with MHCC97H; > 100 µM in the series with HuH-6; 16.9 µM in the series on H22; 8.27 µM in the series on Huh-7; > 100 µM with Hepa 1-6; > 100 µM with HepG2. In the series with HuH-1 [2], the IC50 worked out at 17.1 µM. In addition, the half-maximal inhibitory concentration (IC50) at 48 h in series [1] was > 100 µM.
Turning to `COC(=O)[C@H](CCCCNC(=O)CN1C(=O)C(=O)c2cc(Cl)ccc21)NC(=O)CN1C(=O)C(=O)c2cc(Cl)ccc21`, the half-inhibitory concentration (IC50) is > 100 µM in the series on MHCC97H; > 100 µM with HuH-6; 45.8 µM with H22; 29.9 µM with Huh-7; > 100 µM in the series with Hepa 1-6; > 100 µM in the series on HepG2. Moreover, in the series on HuH-1 [2], the IC50 stood at 26.4 µM. In addition, the IC50 at 48 h in [1] is > 100 µM.

For orientation: IC50 means the concentration that inhibits the measured activity by half.
